Data on two molecules can be found in patent US20050004007A1, “Promotion of adoptosis in cancer cells by co-administration of cyclin dependent kinase inhibitiors and cellular differentiation agents” (priority 2000, published 2005).

What all share (format): cell-based, human
One assay deals with histones H3 and H4. The experiment in a line: acetylated histone Western (HDAC assay) in U937 cells. Conditions: 1 mM SB, 100 nM FP. On the procedure:
Histone Deacetylase (HDAC) Assay. Acid extraction of proteins from treated cells and detection of acetylated histones H3 and H4 by Western blot analysis was performed per the manufacturer's instructions (Upstate Biotechnology). 10 μg of extract was loaded per lane and separated on pre-cast 4-20% Biorad Gradient Gels.

Another assay has as its system pRb/E2F complexes. The experiment in a line: pRb immunoprecipitation and EMSA of E2F in U937 cells. As to conditions: 8 h exposure; 10 nM PMA, 100 nM FP, 1 mM SB. The method, then: Electrophoretic Mobility Shift Assay (EMSA) and Immunoprecipitation (IP). Whole-cell extracts were prepared as previously described [Bagchi et al. 1990] and EMSA following IP was performed as previously reported [Chellapan et al. 1991]. Whole cell extracts (150 μg) were combined with 4 μl of anti-RB monoclonal antibody (Calbiochem) for the IP. Immunoprecipitated proteins were recovered on Protein A sepharose beads and dissociated by treatment with deoxycholate. The presence of E2F in the IP was monitored by EMSA as previously noted [Yee et al. 1987].
Immunoprecipitation and EMSA. Whole-cell extracts were prepared by hypotonic shock followed by salt extraction, as described previously (Chellappan et al., 1991). Portions (50 to 200 μg) of whole-cell extracts were treated with 5 μl of the appropriate primary antibody in a volume of 100 μl at 4° C. for 1 h. Then, 3 mg of protein A-Sepharose or protein G-Sepharose in a 100-μl volume was added and incubated for an additional hour. The binding was performed in a buffer containing 20 mM HEPES (pH 7.9), 40 mM KCl, 1 mM MgCl2, 0.1 mM EGTA, 0.1 mM EDTA, 0.1 mM DTT, 0.1 mM NaF, 0.1 mM Na3VO4, 0.5% NP-40, and 3 mg of BSA per ml. The beads were washed six times with 600 μl of the same buffer and boiled in 20 μl of SDS sample buffer. […] The gel was dried, and the bands were detected by autoradiography.
(A gel shift assay detects complexes by their altered migration in electrophoresis.)

A further assay has as its system cdk2 and cdk4. Kind of assay: Western analysis of cdk2/4-phosphorylated pRb in U937 cells. As to conditions: FP 100 nM, SB 1 mM. The method, then: Alternatively, whole cell-pellets were washed twice in PBS, resuspended in PBS, and lysed by the addition of I volume of loading buffer. Lysates were boiled for 10 min, centrifuged at 12,800 g for 5 min and quantified using Coomassie protein assay reagent (Pierce, Rockfold, Ill.). 25 μg of total proteins per point were separated by SDS-PAGE and electro-blotted to nitrocellulose. The blots were blocked in 5% non-fat milk in PBS-T and probed for 1 h with the appropriate dilution of primary antibody. Blots were washed 3×10 min in PBS-T and then incubated with a 1:2000 dilution of peroxidase-conjugated secondary antibody for 1 h at room temperature. Blots were again washed 3×10 min in PBS-T and then developed by enhanced chemiluminesence. Where indicated, blots were stripped and re-probed with antibodies directed against actin. […]

As for `CCCC(=O)[O-].[Na+]` [SB, sodium butyrate], the “acetylation of histones H3 and H4” value in the assay on histones H3 and H4 was “Acetylation of H3 and H4 was observed”.
Take `CN1CC[C@H](c2c(O)cc(O)c3c(=O)cc(-c4ccccc4Cl)oc23)[C@H](O)C1` [FP, Flavopiridol]: in the assay with pRb/E2F complexes, the “E2F binding to labeled probe after pRb immunoprecipitation” value is listed as “clear reduction in E2F binding”. Besides, the “cdk2/4 activities (cdk2/4-phosphorylated pRb)” value in the assay on cdk2 and cdk4 is recorded as “moderate inhibition”.
